Holding throughout (format): cell-based, human
The subject of assay [1] is vaccinia-specific CD8 CTL clones. The settings on record: read-out: EC50 in CTL assays.
Assay [2] relates to bulk vaccinia-specific CD8 CTL.
The next assay concerns CD4+ T-cells. Particulars: humans, Example 2.
Assay [3] deals with bulk vaccinia-specific CD8 CTL. This is another data set of the same source.

pEC50: −log10 of the molar value.

Regarding EEQELLLLY [F3 41-49], the pEC50 in assay [1] is ~8.00. Moreover, the “IFN-γ secretion by bulk CTL, in words” value in assay [2] is recorded as “again detectable”.

In the case of KIQNVIIDECY [L1R 127-137], the “CD4+ T-cell reactivity, in words” value in the assay on CD4+ T-cells is listed as “reacts with CD4+ T-cells”. Take NPITKTTSDYQDSDVSQEVR [A33R 157-176]: the “CD4+ T-cell reactivity, in words” value in the assay on CD4+ T-cells is listed as “containing the epitope”. Same read-out and setting: for TKTTSDYQDSDVSQ [A33R 160-173] the value was “epitope region has been further narrowed down”.

Regarding VWINNSWKF [D5R 349-357], in assay [3], the “IFN-γ ICC response relative to DMSO background, in words” value was “detection of IFN-γ-bright cells at a level above the background”. Regarding WLKIKRDYL [A50R 395-403], in assay [3], the “net ICC response (peptide minus DMSO)” value was ~1.55% and the “percentage of bulk CTL positive for IFN-γ by ICC” value stood at 2.95%. With YEFRKVKSY [A3L 264-272], the “IFN-γ secretion by bulk CTL, in words” value in assay [2] is “positive”. Moreover, the “IFN-γ ICC response relative to DMSO background, in words” value in assay [3] is reported as “positive”.

Source of the values: patent US20090269365A1, “IMMUNOGENIC VACCINIA PEPTIDES AND METHODS OF USING SAME” (priority 2005, published 2009).
